Reference: patent publication US12286437B2, “Cardiac sarcomere inhibitors” (Cytokinetics, Inc., priority 2021, dated 2025)

Columns and labels:
CYP1A2 = target: T1, CYP1A2 (Homo sapiens, UniProt P05177); test: Time-dependent inhibition of CYP1A2 in human liver microsomes; type: in vitro ADME; conditions: for (% Activity NADPH T0)/(% Activity NADPH T30): fold change; for activity at 30 min, 25 µM / activity at 0 min, 25 µM / activity at 30 min, 50 µM / activity at 0 min, 50 µM: pooled human liver microsomes, human liver microsomes; for activity at 30 min, 25 µM / activity at 30 min, 50 µM: after 30 minutes incubation, read-out: % Activity NADPH T30; for activity at 0 min, 25 µM / activity at 0 min, 50 µM: time zero, read-out: % Activity NADPH T0
T1 construct: Pooled human microsomes and selective CYP probe substrates were used; from tissue; host or cells: pooled human liver microsomes
T1 sequence (P05177 1-516): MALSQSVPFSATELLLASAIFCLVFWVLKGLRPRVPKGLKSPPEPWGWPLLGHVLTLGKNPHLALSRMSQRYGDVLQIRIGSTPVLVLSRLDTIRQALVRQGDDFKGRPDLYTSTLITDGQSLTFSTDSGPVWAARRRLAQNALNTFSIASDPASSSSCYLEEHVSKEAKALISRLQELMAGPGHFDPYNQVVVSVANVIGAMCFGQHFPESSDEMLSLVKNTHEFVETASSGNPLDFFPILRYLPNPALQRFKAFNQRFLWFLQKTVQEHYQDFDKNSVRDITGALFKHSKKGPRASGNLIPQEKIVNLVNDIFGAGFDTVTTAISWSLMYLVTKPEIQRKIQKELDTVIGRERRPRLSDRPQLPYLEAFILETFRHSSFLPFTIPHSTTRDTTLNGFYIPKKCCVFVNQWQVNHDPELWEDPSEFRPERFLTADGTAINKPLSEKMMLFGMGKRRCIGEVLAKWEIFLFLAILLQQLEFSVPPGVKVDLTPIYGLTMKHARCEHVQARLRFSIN
Protocol: An assessment of the time-dependent Inhibitory Potential of the test compounds against Principal Human Cytochrome P450 Isozymes using Human Liver Microsomes was also carried out using standard methods (Grimm et al, Drug Metab. Dispos., July; 37(7):1355-70. doi: 10.1124/dmd.109.026716, 2009). Pooled human microsomes and selective CYP probe substrates were used for in vitro assessment of test compounds at 25 and 50 μM as time-dependent inhibitors of […] human hepatic cytochrome P450 isozymes (CYP1A2, 2B6, 2C9, 2C19, 2D6, and 3A4). LC-MS/MS was used to quantify metabolite formation. The inhibition of each P450 enzyme in human liver microsomes was measured as the percentage decrease in the activity of marker metabolite formation as measured by LC-MS/MS compared to non-inhibited controls (=100% activity) at time zero and after 30 minutes incubation. The occurrence of any time dependent inhibition was then expressed as the fold change in enzyme activity at time zero relative to the activity after 30 minutes incubation.

[1] = test system: bovine cardiac myofibrils; test: Myofibril assay (ATPase activity of skinned bovine cardiac myofibrils, PK/LDH-coupled); type: biochemical; conditions: inhibition of steady-state ATPase of bovine cardiac myofibrils; CaCl2 for 50% or 75% activation
Protocol: To evaluate the effect of compounds on the ATPase activity of full-length cardiac myosin in the context of the native sarcomere, skinned myofibril assays were performed. Bovine cardiac myofibrils were obtained by homogenizing bovine cardiac left ventricular tissue in the presence of a detergent such as triton X-100. Such treatment removes membranes and a majority of the soluble cytoplasmic proteins but leaves intact the cardiac sarcomeric acto-myosin apparatus. Myofibril preparations retain the ability to hydrolyze ATP in a Ca^2+ regulated manner. ATPase activities of such myofibril preparations in the presence and absence of compounds were assayed at Ca^2+ concentrations activating to a defined fraction of the maximal rate (i.e., […], 75%). Small molecule agents were assessed for their ability to inhibit the steady-state ATPase activity of bovine cardiac myofibrils using pyruvate kinase and lactate dehydrogenase (PK/LDH)-coupled enzyme system. This assay regenerates myosin-produced ADP into ATP by oxidizing NADH, producing an absorbance change at 340 nm. Prior to testing small molecule agents, the bovine cardiac myofibrils were assessed for their calcium responsiveness and the calcium concentration that achieves either a 50% (pCa50) or 75% (pCa75) activation of the myofibril system was chosen as the final condition for assessing the inhibitory activity of the small molecule agents. All enzymatic activity was measured in a buffered solution containing 12 mM PIPES (piperazine-N,N′-bis(2-ethanesulfonic acid), 2 mM magnesium chloride at pH 6.8 (PM 12 buffer). Final assay conditions were 1 mg/mL of bovine cardiac myofibrils, 4 U/mL pyruvate kinase, 6 U/mL lactate dehydrogenase, 50 μM ATP, 0.1 mg/mL BSA (bovine serum albumin), 10 ppm antifoam, 1 mM DTT, 0.5 mM NADH, 1.5 mM PEP, 0.6 mM EGTA, and an amount of CaCl2 sufficient to achieve either 50% or 75% activation of the myofibril ATPase activity. Results for compounds tested are provided in Table A. Compounds tested were prepared in accordance with the synthetic procedures described herein.

SMILES	(% Activity NADPH T0)/(% Activity NADPH T30) (CYP1A2; CYP1A2, 25 μM)	(% Activity NADPH T0)/(% Activity NADPH T30) (CYP1A2; CYP1A2, 50 μM)	activity at 30 min, 25 µM (CYP1A2; CYP1A2, 25 μM)	activity at 0 min, 25 µM (CYP1A2; CYP1A2, 25 μM)	activity at 30 min, 50 µM (CYP1A2; CYP1A2, 50 μM)	activity at 0 min, 50 µM (CYP1A2; CYP1A2, 50 μM)	CDMF IC15 [1]
C[C@H]1CC[C@H](N2CC(=O)N(Cc3ccc(F)c(F)c3)C3(CN(C(N)=O)C3)C2=O)CC1 [Compound 5, 5-(3,4-difluorobenzyl)-8-((1r,4r)-4-methylcyclohexyl)-6,9-dioxo-2,5,8-triazaspiro[3.5]nonane-2-carboxamide]	1.0	1.1	87%	89%	88%	99%	1300 nM
CC(C)N1CC(=O)N(Cc2ccc(Cl)c(F)c2)C2(CN(c3cccnn3)C2)C1=O [Compound 8, 5-(4-chloro-3-fluorobenzyl)-8-isopropyl-2-(pyridazin-3-yl)-2,5,8-triazaspiro[3.5]nonane-6,9-dione]	0.9	0.9	96%	82%	101%	86%	1300 nM
C[C@H]1CC[C@H](N2CC(=O)N(Cc3ccc(F)c(Cl)c3)C3(CN(C(N)=O)C3)C2=O)CC1 [Compound 7, 5-(3-chloro-4-fluorobenzyl)-8-((1r,4r)-4-methylcyclohexyl)-6,9-dioxo-2,5,8-triazaspiro[3.5]nonane-2-carboxamide]	0.9	0.8	95%	81%	100%	79%	800 nM
Cc1cc(CN2C(=O)CN([C@H]3CC[C@H](C)CC3)C(=O)C23CN(C(N)=O)C3)ccc1F [Compound 6, 5-(4-fluoro-3-methylbenzyl)-8-((1r,4r)-4-methylcyclohexyl)-6,9-dioxo-2,5,8-triazaspiro[3.5]nonane-2-carboxamide]	1.1	1.0	85%	97%	99%	95%	1400 nM
CC(C)N1CC(=O)N(Cc2ccc(C(F)(F)F)cc2)C2(CN(c3cccnn3)C2)C1=O [Compound 13, 8-isopropyl-2-(pyridazin-3-yl)-5-(4-(trifluoromethyl)benzyl)-2,5,8-triazaspiro[3.5]nonane-6,9-dione]	0.9	0.8	99%	88%	110%	92%	2000 nM
C[C@H]1CC[C@H](N2CC(=O)N(Cc3ccc(Cl)cc3)C3(CN(C(N)=O)C3)C2=O)CC1 [Compound 18, 5-(4-chlorobenzyl)-8-((1r,4r)-4-methylcyclohexyl)-6,9-dioxo-2,5,8-triazaspiro[3.5]nonane-2-carboxamide]	0.9	1.0	99%	85%	90%	92%	1200 nM
C[C@H]1CC[C@H](N2CC(=O)N(Cc3ccc(F)c(F)c3)C3(CN(C=O)C3)C2=O)CC1 [Compound 4, 5-(3,4-difluorobenzyl)-8-((1r,4r)-4-methylcyclohexyl)-6,9-dioxo-2,5,8-triazaspiro[3.5]nonane-2-carbaldehyde]	1.1	1.0	–	–	–	–	1500 nM
